The results in this text go back to US8541460B2, “PDK-1/Akt signaling inhibitors” (The Ohio State University, priority 2003, dated 2013).

Structures are written as SMILES.

For one assay, the system named is SNB-19. Description: NCI DTP cell line screen (SRB), CNS Cancer. The format is cell-based, human. As to the method: (§1) Screening of compounds 70 and 71 against several cancer cell lines The human tumor cell lines of the cancer screening panel are grown in RPMI 1640 medium containing 5% fetal bovine serum and 2 mM L-glutamine. For a typical screening experiment, cells are inoculated into 96 well microtiter plates in 100 μL at plating densities ranging from 5,000 to 40,000 cells/well depending on the doubling time of individual cell lines. After cell inoculation, the microtiter plates are incubated at 37° C., 5% CO2, 95% air and 100% relative humidity for 24 h prior to addition of experimental drugs.
(§2) After 24 h, two plates of each cell line are fixed in situ with TCA, to represent a measurement of the cell population for each cell line at the time of drug addition (Tz). Experimental drugs are solubilized in dimethyl sulfoxide at 400-fold the desired final maximum test concentration and stored frozen prior to use. At the time of drug addition, an aliquot of frozen concentrate is thawed and diluted to twice the desired final maximum test concentration with complete medium containing 50 μg/ml gentamicin. Additional four, 10-fold or ½ log serial dilutions are made to provide a total of five drug concentrations plus control. Aliquots of 100 μl of these different drug dilutions are added to the appropriate microtiter wells already containing 100 μl of medium, resulting in the required final drug concentrations.
(§3) Following drug addition, the plates are incubated for an additional 48 h at 37° C., 5% CO2, 95% air, and 100% relative humidity. For adherent cells, the assay is terminated by the addition of cold TCA. Cells are fixed in situ by the gentle addition of 50 μl of cold 50% (w/v) TCA (final concentration, 10% TCA) and incubated for 60 minutes at 4° C. The supernatant is discarded, and the plates are washed five times with tap water and air dried. Sulforhodamine B (SRB) solution (100 μl) at 0.4% (w/v) in 1% acetic acid is added to each well, and plates are incubated for 10 minutes at room temperature. After staining, unbound dye is removed by washing five times with 1% acetic acid and the plates are air dried. Bound stain is subsequently solubilized with 10 mM trizma base, and the absorbance is read on an automated plate reader at a wavelength of 515 nm. For suspension cells, the methodology is the same except that the assay is terminated by fixing settled cells at the bottom of the wells by gently adding 50 μl of 80% TCA (final concentration, 16% TCA). Using the seven absorbance measurements [time zero, (Tz), control growth, (C), and test growth in the presence of drug at the five concentration levels (Ti)], the percentage growth is calculated at each of the drug concentrations levels. Percentage growth inhibition is calculated as: [(Ti−Tz)/(C−Tz)]×100 for concentrations for which Ti>/=Tz [(Ti−Tz)/Tz]×100 for concentrations for which Ti<Tz
(§4) Three dose response parameters are calculated for each experimental agent. […] The drug concentration resulting in total growth inhibition (TGI) is calculated from Ti=Tz. […] Values are calculated for each of these three parameters if the level of activity is reached; however, if the effect is not reached or is exceeded, the value for that parameter is expressed as greater or less than the maximum or minimum concentration tested.
(§5) The methods described were used to test compounds 70 and 71 on a panel of sixty cell lines under a screening service provided by the Developmental Therapeutics Program at the National Institutes of Health. Shown in FIG. 1C are 1, RPMI-8226 leukemia cells; 2; NCI-H322M non-small cell lung cancer cells; 3, HT29 colon cancer cells; 4, U251 CNS cancer cells; 5, SK-MEL-28 melanoma cancer cells; 6, SK-OV-3 ovarian cancer cells; 7, RXF 393 renal cancer cells; 8, PC-3 prostate cancer cells; 9, MDA-MB-231 breast cancer cells.

In the next assay the test system is U251. Briefly: NCI DTP cell line screen (SRB), CNS Cancer. The format is cell-based, human. As to the method:
as §1, §2, §3, §4, §5

In the case of `NCC(=O)Nc1ccc(-n2nc(C(F)(F)F)cc2-c2ccc3c(ccc4ccccc43)c2)cc1` [Compound 70, 2-Amino-N-{4-[5-(2-phenanthrenyl)-3-(trifluoromethyl)-1H-pyrazol-1-yl]-phenyl}-acetamide], the TGI came out at 3.15E−06 with SNB-19 and 2.64E−06 in the assay with U251. In addition, the “Percent Growth” value is reported as −39% with SNB-19 (Log10 Concentration −4.0); −59% with SNB-19 (Log10 Concentration −5.0); 59% with SNB-19 (Log10 Concentration −6.0); 94% with SNB-19 (Log10 Concentration −7.0); 87% in the assay with SNB-19 (Log10 Concentration −8.0); −18% with U251 (Log10 Concentration −4.0). Also, the “Percent Growth” value in the assay with U251 (Log10 Concentration −5.0) is −63%; in the assay on U251 (Log10 Concentration −6.0) it was 46%; in the assay with U251 (Log10 Concentration −7.0) it was 82%; in the assay on U251 (Log10 Concentration −8.0), 100%.
